This note sets out measurements from patent US9937234B2, “Compositions and methods for using and identifying antimicrobial agents” (priority 2013, dated 2018).

Entries after “also recorded” stand apart in the source; their conditions may differ.

In assay [1] the test system is B. anthracis Sterne strain spores. Format: cell-based, Bacillus anthracis.
Assay [2] concerns B. anthracis Sterne strain bacilli. In kind it is cell-based, Bacillus anthracis.
Assay [3] has as its system E. coli parent strain (BW25113). The assay can be described thus: Antimicrobial assay against E. coli parent strain (cfu/mL). Format: cell-based, Escherichia coli.
The next assay relates to E. coli ΔaceE. The assay can be described thus: Antimicrobial assay against E. coli ΔaceE (cfu/mL). In kind it is cell-based, Escherichia coli. Conditions: 2 h.
Assay [4] concerns E. coli ΔaceE, ΔaceF and ΔlpdA. Kind of assay: Antimicrobial assay against E. coli PDHc subunit deletion mutants (cfu/mL). In kind it is cell-based, Escherichia coli. The settings on record: concentrations as high as 48 μg/mL; 2 h.
Assay [5] deals with E. coli transposon mutants Tnx 6 and Tnx 15. The assay can be described thus: Secondary screen of E. coli transposon mutants (cfu/mL). Format: cell-based, Escherichia coli. Conditions: 6 μg/mL for 2 h.

CCL2 [reference compound]: the “effect on spore form / spore germination” value in assay [1] was “no antimicrobial activity”. Moreover, the “antimicrobial activity against the vegetative form (bacilli)” value (“antimicrobial activity … (bacilli)” for short) in assay [2] is on record as “no antimicrobial activity”.
On to CCL5 [reference compound], for which, in assay [1], the “effect on spore form / spore germination” value is reported as “no antimicrobial activity”. Moreover, the “antimicrobial activity … (bacilli)” value in assay [2] was “no antimicrobial activity”.
human CXCL9: the “effect on spore form / spore germination” value in assay [1] is recorded as “direct inhibitory effects on spore germination; also recorded: spore germination was blocked or reduced”. In assay [2], the “antimicrobial activity … (bacilli)” value is on record as “directly kill vegetative cells; also recorded: antimicrobial activity against the vegetative form”; the “hierarchy of activity in ability to kill bacilli and block spore germination” value (“hierarchy of activity in ability” for short) is on record as “CXCL10>CXCL9>CXCL11”; the “hierarchy of direct antimicrobial activity” value is given as “hCXCL10>hCXCL9>hCXCL11”.
Turning to human CXCL10, the “effect on parent strain” value in assay [3] (6 μg/mL) is on record as “not entirely killed”. In assay [3] (10 μg/mL for 2 hours), the “effect on parent strain” value was “killed”. For the same molecule, in assay [3] (36 μg/mL (4.2 μM) and 48 μg/mL (5.6 μM)), the “effect on parent strain” value is on record as “killed”. The “susceptibility of parent strain complemented with empty vector or aceE vector” value in assay [3] (pBR322 or pUVA411, increasing concentrations, 2 h) is recorded as “remained similarly susceptible”. For the same molecule, in assay [1], the “effect on spore form / spore germination” value was “direct inhibitory effects on spore germination; also recorded: spore germination was blocked or reduced”. In assay [2], the EC50 value lay in the range of 4 to 6 µg/mL; the “EC50 value, killing effect” value was found to be 0.33 µg/mL; the “antimicrobial activity … (bacilli)” value is “directly kill vegetative cells; also recorded: antimicrobial activity against the vegetative form”; the “hierarchy of activity in ability” value is “CXCL10>CXCL9>CXCL11”. For the same molecule, in assay [2], the “hierarchy of direct antimicrobial activity” value was “hCXCL10>hCXCL9>hCXCL11” and the “more potent killing effect, stationary vs exponential phase” value was above 10 fold. In the assay on E. coli ΔaceE (increasing concentrations, compared to parent strain), the “susceptibility of ΔaceE” value is “significantly less susceptible; also recorded: exhibits resistance; also recorded: resistant”. Further, the “susceptibility of ΔaceE complemented with aceE” value in the assay on E. coli ΔaceE (plasmid pUVA411 (aceE)) is on record as “restored susceptibility; also recorded: restores the parent strain susceptibility phenotype”. Also, in assay [4], the “susceptibility of ΔaceE, ΔaceF and ΔlpdA deletion mutants” value is listed as “equally resistant”. In assay [5], the “susceptibility of Tnx 6 and Tnx 15 in relation to the parent strain” value is recorded as “significantly decreased susceptibility”.

B1: human CXCL11 (protein, listed as Homo sapiens)
chain: QGFPMFKRGRCLCIGPGVKAVKVADIEKASIMYPSNNCDKIEVIITLKENKGQRCLNPKSKQARLIIKKVERKNF
For the molecule B1, the “effect on spore form / spore germination” value in assay [1] was “direct inhibitory effects on spore germination; also recorded: spore germination was blocked or reduced”. In assay [2], the “antimicrobial activity … (bacilli)” value was “directly kill vegetative cells; also recorded: antimicrobial activity against the vegetative form”; the “hierarchy of activity in ability” value is reported as “CXCL10>CXCL9>CXCL11”; the “hierarchy of direct antimicrobial activity” value is reported as “hCXCL10>hCXCL9>hCXCL11”.

B2: murine CXCL11 (protein, listed as Mus musculus)
chain: QGFLMFKQGRCLCIGPGMKAVKMAEIEKASVIYPSNGCDKVEVIVTMKAHKRQRCLDPRSKQARLIMQAIEKKNF
For B2, in assay [2], the “hierarchy of activity in ability” value is listed as “CXCL9>CXCL10>CXCL11”; the “hierarchy of direct antimicrobial activity” value is “mCXCL9>mCXCL10>mCXCL11”.

B3: murine CXCL9 (protein, listed as Mus musculus)
chain: KSAVLFLLGIIFLEQCGVRGTLVIRNARCSCISTSRGTIHYKSLKDLKQFAPSPNCNKTEIIATLKNGDQTCLDPDSANVKKLMKEWE
For B3, in assay [2], the “hierarchy of activity in ability” value is on record as “CXCL9>CXCL10>CXCL11”; the “hierarchy of direct antimicrobial activity” value is “mCXCL9>mCXCL10>mCXCL11”.

B4: murine CXCL10 (protein, listed as Mus musculus)
chain: MNPSAAVIFCLILLGLSGTQGIPLARTVRCNCIHIDDGPVRMRAIGKLEIIPASLSCPRVEIIATMKKNDEQRCLNPESKTIKNLMKAFSQKRSKRAP
As for B4, in assay [2], the “hierarchy of activity in ability” value is on record as “CXCL9>CXCL10>CXCL11”; the “hierarchy of direct antimicrobial activity” value was “mCXCL9>mCXCL10>mCXCL11”.
